For 15 compounds, GI50 and TGI results are on record in PubChem BioAssay (NCI).

Each structure is given as a SMILES string. Several values for one entry are separate records, joined by “and”; a condition that tells them apart may be missing. Equal values may be shown once.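 Protocol summary: plate cells (96-well), add compound at 5 concentrations, incubate 48 h, interpolate endpoints linearly. GI50 marks 50% less growth. TGI: total growth inhibition.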

What all share (test): growth of human tumour cells (NCI), 48 h
The subject of assay [1] is 786-0 renal.
For assay [2], the system named is NCI-H226 lung.
In assay [3] the test system is HCT-116 colon.
Assay [4] deals with NCI-H460 lung.
Assay [5] concerns BT-549 breast.
Assay [6] has as its system HCT-15 colon.
Assay [7] deals with SNB-19 CNS.
Assay [8] has as its system PC-3 prostate.
For assay [9], the system named is MDA-MB-231 breast.
In assay [10] the test system is MALME-3M melanoma.

On to `NC(Cc1c[nH]c2cc(F)ccc12)C(=O)O` (stereo unspecified), for which the GI50 in [1] is 1080 µM; in [2] it was 2480 µM; in [3] it was 1030 µM; in assay [4], 768 µM; in assay [5], 841 µM; in assay [6], 888 µM. Further, the GI50 was 1440 µM in assay [7], 1810 µM in assay [8], 1460 µM in assay [9] and 859 µM in assay [10]. Also, the TGI in assay [1], in assay [2], in assay [3], in [4], in [5] and in assay [6] was greater than 2500 µM throughout. Moreover, the TGI in assay [7] is greater than 2500 µM; in [8], greater than 2500 µM; in [9], greater than 2500 µM; in assay [10], 2320 µM.
For `COC1C(O)CC(OC2CC(OC3CC(O[C@@H]4C(=O)c5c(cc6cc(OC7CC(OC8CC(O)C(O)C(C)O8)C(O)C(C)O7)c(C)c(O)c6c5O)CC4[C@H](OC)[C@@H](O)C(C)=O)OC(C)C3O)OC(C)C2O)OC1C` (stereo partly specified), the GI50 is 0.0219 µM in [1]; 0.0507 µM in [2]; 0.00621 µM in [3]; 0.00673 µM in assay [4]; less than 0.0292 µM in assay [5]; 0.335 µM in assay [6]. Besides, the GI50 in [7] is 0.0099 µM; in [8] it was 0.0243 µM; in [9], 0.051 µM; in assay [10], 0.0181 µM. For the same compound, the TGI was greater than 33.3 µM in assay [1]; 0.181 µM in assay [2]; greater than 33.3 µM in [3]; greater than 33.3 µM in assay [4]; 12.5 µM in assay [5]; greater than 33.3 µM in assay [6]. Besides, the TGI was greater than 33.3 µM in assay [7], greater than 33.3 µM in [8], greater than 33.3 µM in [9] and 1.28 µM in assay [10].
With `N#Cc1ccc(NC(=O)Nc2nc3ccc(OC(F)(F)F)cc3s2)cc1`, the GI50 in assay [1] was 2 µM; in [2], 1.98 µM; in assay [3] it was 0.552 µM; in assay [4] it was 0.605 µM; in assay [5], 2.78 µM; in assay [6] it was 1.38 µM. Also, the GI50 was 1.5 µM in assay [7], 1.36 µM in assay [8], 0.935 µM in assay [9] and 0.843 µM in assay [10]. For the same compound, the TGI is 6.35 µM in assay [1]; 10.4 µM in assay [2]; 2.87 µM in [3]; 7.81 µM in assay [4]; 9.36 µM in assay [5]; 6.45 µM in [6]. In addition, the TGI is 13.9 µM in assay [7], 12.2 µM in assay [8], 3.65 µM in assay [9] and 5.92 µM in assay [10].
Consider `CCC1(N)C(=O)OCc2c1cc1n(c2=O)Cc2cc3ccccc3nc2-1` (stereo unspecified), for which the GI50 in assay [1] is 3.31 µM; in assay [2] it was 2.71 µM; in [3], 6.51 µM; in assay [4], 1.72 µM; in assay [6], 19.7 µM; in [9], 49.3 µM. In addition, in [10], the GI50 is 24.5 µM. The TGI in assay [1] is 49.8 µM and > 54.6 µM; in assay [2], 34.3 µM and 97.1 µM; in assay [3] it was 23.4 µM and > 100 µM; in assay [5] it was greater than 100 µM; in [6], greater than 100 µM; in assay [7], greater than 100 µM. Besides, the TGI in assay [8], in assay [9] and in [10] was greater than 100 µM in each case.
For `O=S(=O)(NCCNc1cc(-c2cn(-c3ccccc3)nc2-c2cccc(O)c2)ccn1)c1ccc(Br)cc1`, the GI50 is 2.17 µM in assay [1]; 3.15 µM in assay [2]; 2.44 µM in [3]; 2.39 µM in [4]; 2.52 µM in assay [5]; 1.8 µM in assay [6]. Moreover, the GI50 in [7] is 2.89 µM; in [8] it was 2.07 µM; in [9], 1.9 µM; in assay [10], 2.08 µM. Also, the TGI in [1] was 7.78 µM; in assay [2], 15 µM; in [3], 6.48 µM; in assay [4] it was 5.76 µM; in assay [5], 6.87 µM; in assay [6] it was 4.39 µM. The TGI in assay [7] amounted to 11.1 µM; in assay [8], 6.41 µM; in assay [9], 4.59 µM; in [10], 5.08 µM.
On to `COc1ccc(C(=O)c2cc(C)c(OC)c(C)c2)c(OC)c1N(C(=O)CCl)C(=O)CCl`, for which the GI50 was 0.0474 µM in assay [1]; 0.0562 µM in assay [2]; 0.0638 µM in assay [3]; 0.0386 µM in assay [4]; 0.0554 µM in [5]; 0.0537 µM in assay [6]. The GI50 in [7] is 0.05 µM; in [8] it was 0.0467 µM; in assay [9], 0.149 µM; in assay [10], 0.0667 µM. For the same compound, the TGI in assay [1] is 15.4 µM; in assay [2], 4.22 µM; in assay [3] it was 10.8 µM; in assay [4], 1.3 µM; in [5], 1.43 µM; in assay [6] it was 14.2 µM. Also, the TGI in assay [7] was greater than 71.1 µM; in [8], 18.4 µM; in assay [9], 18.9 µM; in [10] it was 25.4 µM.
In the case of `CCCC(=O)Nc1c(I)cc(I)c(CC(CC)C(=O)O)c1I` (stereo unspecified), the GI50 in [1], in assay [2], in [3], in assay [4], in [5] and in assay [6] was greater than 100 µM throughout. Also, the GI50 in assay [7], in assay [8], in assay [9] and in [10] was greater than 100 µM throughout. For the same compound, the TGI in assay [1], in assay [2], in assay [3], in [4], in assay [5] and in [6] was greater than 100 µM throughout. Moreover, the TGI in [7], in [8], in assay [9] and in assay [10] was greater than 100 µM in each case.
Consider `COC(=O)CCCNC(=O)C(=O)c1c(O)c(O)c(C(C)C)c2cc(C)c(-c3c(C)cc4c(C(C)C)c(O)c(O)c(C(=O)C(=O)NCCCC(=O)OC)c4c3O)c(O)c12`, for which the GI50 in assay [1] was 1.07 µM; in [2], 0.575 µM; in assay [3] it was 0.156 µM; in [4], 0.345 µM; in assay [5] it was 1.19 µM; in [6], 0.587 µM. Also, the GI50 in [7] was 0.167 µM; in assay [8], 0.258 µM; in [9], 0.743 µM; in assay [10], 0.902 µM. Moreover, the TGI turned out to be 7.54 µM in assay [1]; 2.94 µM in assay [2]; 2.31 µM in assay [3]; 3.74 µM in [4]; 7.28 µM in assay [5]; 4.45 µM in assay [6]. Further, the TGI in assay [7] was found to be 7.1 µM; in assay [8], 8.65 µM; in assay [9], 2.99 µM; in assay [10], 12.9 µM.
`CC(C)=CCc1c(O)c(C(=O)CC(C)C)c(O)c2c(-c3ccccc3)cc(=O)oc12`: the GI50 was 10.7 µM in assay [1]; 16.4 µM in [2]; 7.27 µM in [3]; 8.03 µM in assay [4]; 7.31 µM in assay [5]; 7.11 µM in assay [6]. For the same compound, the GI50 is 10.3 µM in [7], 5.71 µM in assay [8], 8.26 µM in [9] and 10.8 µM in assay [10]. Besides, the TGI in assay [1] was greater than 50 µM; in [2] it was greater than 50 µM; in [3], 43.3 µM; in assay [4], greater than 50 µM; in [5], greater than 50 µM; in assay [6], greater than 50 µM. Moreover, the TGI was greater than 50 µM in assay [7], 39.8 µM in assay [8], 22 µM in assay [9] and 33.9 µM in [10].
For the compound `CC1(C)OC2COC(c3[nH]nc4c(=O)[nH]c(=O)[nH]c34)C2O1` (stereo unspecified), the TGI in assay [1], in assay [2], in assay [3], in assay [4], in assay [5] and in assay [6] was greater than 100 µM each time. For the same compound, the TGI in assay [7], in [8], in [9] and in assay [10] was greater than 100 µM each time.
Take `CCN(CC)c1ccc(/C=N/NC(=O)c2ccccc2Nc2ccnc(C(F)(F)F)c2)c(O)c1`: the GI50 in [1] is 0.183 µM; in assay [2], 0.235 µM; in assay [3], 0.0895 µM; in [4], 0.0681 µM; in assay [5], 0.529 µM; in assay [6], 0.0457 µM. Also, the GI50 in [7] was 0.363 µM; in [8], 0.997 µM; in assay [9], 0.261 µM; in [10] it was 0.331 µM. Besides, the TGI in assay [1] was 0.984 µM; in assay [2], 2.37 µM; in assay [3] it was greater than 100 µM; in assay [4], greater than 23.4 µM; in assay [5], greater than 100 µM; in assay [6], greater than 100 µM. Moreover, the TGI is greater than 100 µM in assay [7], greater than 100 µM in [8], greater than 100 µM in assay [9] and 5.17 µM in assay [10].
With `C[C@H](C(O)CC(=O)C(C)(C)O)[C@H]1CC[C@@]2(C)[C@@H]3CC[C@H]4C(C)(C)[C@@H](OC5OC(COC6OC(CO)C(O)C(O)C6O)C(O)C(O)C5O)CC[C@]4(C)C3=CC[C@]12C` (stereo partly specified), the TGI in assay [1], in assay [2], in assay [3], in assay [4], in assay [5] and in assay [6] was greater than 100 µM throughout. Further, the TGI in [7], in [8], in assay [9] and in [10] was greater than 100 µM in each case.
On to `O=C(O)CNC(=O)C1NC(C(F)(F)F)(C(F)(F)F)OC1(C(F)(F)F)C(F)(F)F` (stereo unspecified), for which the TGI in assay [1], in assay [2], in [3], in assay [4], in [5] and in assay [6] was greater than 100 µM in each case. In addition, the TGI in assay [7], in assay [8], in [9] and in assay [10] was greater than 100 µM each time.
On to `Cc1ccc(-n2c3c(c4c(CN)c(O)ccc42)CCc2ccccc2C3=O)cc1`, for which the GI50 is 14.6 µM in assay [1]; 18.2 µM in [2]; 9.24 µM in assay [3]; 7.33 µM in [4]; 10.7 µM in assay [5]; 15.9 µM in [6]. The GI50 in assay [7] is 19.9 µM; in [8], 4.77 µM; in assay [9], 14.8 µM; in assay [10] it was 4.58 µM. In addition, the TGI was 28.8 µM in [1]; 36.6 µM in [2]; 21.4 µM in assay [3]; 28.4 µM in [4]; 31.8 µM in assay [5]; 30.9 µM in assay [6]. The TGI in assay [7] was 38.4 µM; in assay [8] it was 19.3 µM; in assay [9], 29.2 µM; in [10], 17.9 µM.
For `Clc1ccc(COC(Cn2ccnc2)c2ccc(Cl)cc2Cl)c(Cl)c1` (stereo unspecified), the GI50 is 4.2 µM in assay [1]; 1.55 µM and 4.44 µM and 9.24 µM in assay [2]; 2.87 µM in [3]; 4.38 µM in assay [4]; 4.7 µM in assay [5]; 3.94 µM in assay [6]. Also, the GI50 was 3.24 µM in [7], 3.07 µM in assay [8], 2.15 µM in assay [9] and 4.52 µM in assay [10]. Further, the TGI in assay [1] was 14.5 µM and 21 µM and 22.9 µM; in [2], 3.31 µM and 23.2 µM and 24.2 µM; in [3], 11.3 µM and 18.4 µM and 17.7 µM; in [4], 19.3 µM and > 100 µM and 35 µM; in [5] it was 16 µM and 30.4 µM; in assay [6] it was 14.6 µM and 24.8 µM and 26.6 µM. The TGI in [7] is 14.6 µM and 29.6 µM and 29.3 µM; in assay [8], 13.8 µM and 20.6 µM and 20.3 µM; in assay [9], 12.9 µM and 26.2 µM and 24.6 µM; in assay [10], 17.1 µM and 29.6 µM and 25.1 µM.
